From patent US20140127827A1, “METHOD FOR DETECTION OF ANTIGEN USING FLUORESCENCE RESONANCE ENERGY TRANSFER IMMUNOASSAY” (priority 2012, published 2014)

Experiments:
Type in all cases: binding
[1] = test system: anti-BaP; assay: FRET immunoassay for benzopyrene using antibodies (BaP/anti-BaP conjugate), incl. specificity to pyrene and DBA; conditions: same concentration as BaP (5 and 20 ng/mL), 10 mM NaHCO3 pH 9.0
Procedure: Under the condition of 10 mM NaHCO3 buffer solution (pH 9.0), BaPs having various concentrations (0, 0.1, 0.2, 0.5, 1, 2, 5, 10, 20 and 50 ng/mL) were reacted with antibodies having constant concentration at room temperature for 20 minutes to obtain BaP/anti-BaP conjugates. The obtained BaP/anti-BaP conjugates were excited at 280 nm to obtain a fluorescence spectrum (FIG. 18). Referring to FIGS. 18 and 19, it can be seen that, as the concentration of BaP increases, fluorescence intensity at a wavelength of 350 nm decreases, while fluorescence intensity at 435 nm increases at the same time.
Under the condition of 10 mM NaHCO3 buffer solution (pH 9.0), specificity of mouse IgG antibody (anti-Mouse IgG) to 5 ng/mL and 20 ng/mL BaP was investigated using FRET immunoassay. […] Further, specificity of anti-BaP to pyrene and dibenz[a,h]anthracene (DBA) having the same concentration as BaP was investigated.

[2] = test system: anti-OTA antibody; assay: FRET immunoassay using an intact antibody (OTA/anti-OTA conjugate); conditions: 0, 10, 100 ng/mL; 25 mM MEST pH 6.0; excitation 280 nm
Procedure: (§1) Using 25 mM MEST buffer solution (containing 0.3% Tween 20 in MES buffer solution, pH 6.0), mycotoxins of various concentrations (0 ng/mL, 10 ng/mL and 100 ng/mL) were reacted with antibodies having a constant concentration at room temperature for 20 minutes to obtain mycotoxin/antibody conjugates (AFB1/anti-AFB1 conjugate, OTA/anti-OTA conjugate, and ZEN/anti-ZEN conjugate). The obtained mycotoxin/antibody conjugates were excited at 280 nm to obtain fluorescence spectra (FIG. 4). Referring to FIG. 4, it can be seen that, as the concentration of mycotoxins (AFB1, OTA and ZEN) increases, the fluorescence intensity at a wavelength of 350 nm decreases.

[3] = test system: anti-AFB1 Fab; assay: FRET immunoassay using Fab fragment (anti-AFB1 Fab), incl. specificity to OTA
Procedure: Under the condition of 25 mM MEST buffer solution (pH 6.0), AFB1 of various concentrations (0, 0.1, 0.2, 0.5, 1, 2, 10, 20, 50 and 100 ng/mL) was reacted with anti-AFB1 Fab fragments having a constant concentration at room temperature for 20 minutes to obtain AFB1/anti-AFB1 Fab conjugates. The obtained AFB1/anti-AFB1 Fab conjugates were excited at 280 nm to obtain fluorescence spectra (FIG. 7). Referring to FIG. 7, it can be seen that, as the concentration of AFB1 increases, the fluorescence intensity at a wavelength of 350 nm decreases. Particularly, it can also be seen that sensitivity of FRET immunoassay using Fab fragments was much better than that of FRET immunoassay using an intact antibody of Example 1 (FIG. 8). Further, as a result of analysis by lowering the concentration of AFB1, it can be seen that approximately up to 0.09 ng/mL of AFB1 could be detected through FRET immunoassay using Fab fragments. This corresponds to a near 10-fold improvement in terms of sensitivity as compared to FRET immunoassay where an intact antibody of Example 1 was used. […]

[4] = test system: anti-AFB1 antibody; conditions: pH 6
[5] = test system: anti-ZEN antibody; assay: FRET immunoassay using an intact antibody (ZEN/anti-ZEN conjugate); conditions: 0, 10, 100 ng/mL; 25 mM MEST pH 6.0; excitation 280 nm
Procedure: as §1

[6] = test system: anti-NPT; assay: FRET immunoassay for neopterin using antibodies (NPT/anti-NPT conjugate), incl. specificity to BPT; conditions: 10 mM NaHCO3 pH 9.0
Procedure: Under the condition of 10 mM NaHCO3 buffer solution (pH 9.0), NPT of various concentrations (0 ng/mL, 0.2 ng/mL, 2 ng/mL and 20 ng/mL) was reacted with antibodies having a constant concentration at room temperature for 20 minutes to obtain NPT/anti-NPT conjugates. The obtained NPT/anti-NPT conjugates were excited at 280 nm to obtain fluorescence spectra (FIG. 14). Referring to FIG. 14, it can be seen that, as the concentration of NPT increases, the fluorescence intensity at a wavelength of 350 nm decreases.
Under the condition of 10 mM NaHCO3 buffer solution (pH 9.0), specificity of mouse IgG antibody (anti-Mouse IgG), IFN-γ antibody (anti-IFN-γ) and CRP antibody (anti-CRP) to 2 ng/mL and 20 ng/mL of NPT was investigated using FRET immunoassay. […] Further, specificity of anti-NPT with BPT having the same concentration as NPT was investigated.

Compound: c1ccc2c(c1)ccc1cc3c(ccc4ccccc43)cc12 [DBA, dibenz[a,h]anthracene]
- binding to anti-BaP (specificity) [1]: a little antigen/antibody binding

Compound: C[C@@H]1Cc2c(Cl)cc(C(=O)N[C@@H](Cc3ccccc3)C(=O)O)c(O)c2C(=O)O1 [OTA, ochratoxin A]
- fluorescence intensity at 350 nm as concentration increases [2]: decreases
- binding to anti-AFB1 Fab (specificity) ([3]; OTA at same concentration as AFB1 (10 and 50 ng/mL), MEST buffer pH 6.0): no antigen/antibody binding

Compound: c1cc2ccc3cccc4ccc(c1)c2c34 [pyrene]
- binding to anti-BaP (specificity) [1]: a little antigen/antibody binding

Compound: COc1cc2c(c3oc(=O)c4c(c13)CCC4=O)[C@@H]1C=CO[C@@H]1O2 [AFB1, aflatoxin]
- fluorescence intensity at 350 nm as concentration increases [4]: decreases
- fluorescence intensity at 350 nm as concentration increases ([3]; pH 6): decreases

Compound: C[C@H]1CCCC(=O)CCC/C=C/c2cc(O)cc(O)c2C(=O)O1 [ZEN, zearalenone]
- fluorescence intensity at 350 nm as concentration increases [5]: decreases

Compound: Nc1nc2ncc([C@H](O)[C@H](O)CO)nc2c(=O)[nH]1 [NPT, neopterin]
- fluorescence intensity at 350 nm as concentration increases ([6]; 0, 0.2, 2, 20 ng/mL NPT, excitation 280 nm): decreases

Compound: biopterin [BPT]
- binding to anti-NPT (specificity) ([6]; BPT at same concentration as NPT (2 and 20 ng/mL)): no antigen/antibody binding
